# From patent US12091411B2, “IRAK degraders and uses thereof” (Kymera Therapeutics, Inc., priority 2022, dated 2024)
# Like-named read-outs stand apart in the source and are kept apart here.
# Biological target: T1, IRAK4 (Homo sapiens, UniProt Q9NWZ3)
# T1 construct: Degradation of IRAK4 in OCI-LY10 was quantitatively measured using Meso Scale Discovery technology; endogenous in cells; host or cells: OCI-LY10
# T1 sequence (Q9NWZ3 1-460): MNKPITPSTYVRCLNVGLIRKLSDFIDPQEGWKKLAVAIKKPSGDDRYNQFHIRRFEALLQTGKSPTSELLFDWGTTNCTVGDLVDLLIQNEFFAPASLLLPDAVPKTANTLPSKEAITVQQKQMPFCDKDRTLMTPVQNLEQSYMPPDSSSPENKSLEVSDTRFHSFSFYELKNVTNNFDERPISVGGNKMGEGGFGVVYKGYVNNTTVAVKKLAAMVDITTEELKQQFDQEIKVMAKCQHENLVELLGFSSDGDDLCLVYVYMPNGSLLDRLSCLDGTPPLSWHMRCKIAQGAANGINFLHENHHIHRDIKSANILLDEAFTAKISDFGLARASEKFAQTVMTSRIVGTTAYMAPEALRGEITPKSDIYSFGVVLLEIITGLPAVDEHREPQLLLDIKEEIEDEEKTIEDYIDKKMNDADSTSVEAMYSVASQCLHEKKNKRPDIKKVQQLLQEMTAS
# Experiment: IRAK4 MSD Degradation in OCI-LY10
# Type: cell-based
# Conditions: OCI-LY10 cells, MSD
# Procedure, shortened: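 OCI-LY10 cells exposed to 8-point 1:3 compound series (top 1 to 10 μM) for 4 to 24 h at 37 °C, 5% CO2. Lysate IRAK4 quantified by MSD sandwich immunoassay. DC50 from three-parameter logistic fit, binned A (<0.01 μM) to D (>0.2 μM or not tested).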
# [1] = 4 hrs incubation, read-out: IRAK4 degradation in OCI-LY10 at 4 hrs: DC50
# [2] = 24 hrs incubation, read-out: IRAK4 degradation in OCI-LY10 at 24 hrs: DC50
Compound,DC50 [1] [µM],DC50 [2] [µM]
Cn1c(=O)n(C2CCC(=O)NC2=O)c2cccc([C@H]3C[C@H](CO[C@@H]4CCN(C[C@H]5CC[C@H](n6cc(NC(=O)c7cnn8ccc(N9C[C@H]%10C[C@@H]9CO%10)nc78)c(C(F)F)n6)CC5)C[C@@H]4F)C3)c21 (some centres unmarked) [I-722],> 0.2,< 0.01
Cn1c(=O)n(C2CCC(=O)NC2=O)c2cccc(N3CCN(C4CCN(C[C@H]5CC[C@H](n6cc(NC(=O)c7cnn8ccc(N9CCC%10(COC%10)C9)nc78)c(C(F)F)n6)CC5)CC4(F)F)CC3)c21 (some centres unmarked) [I-723],> 0.2,< 0.01
Cn1c(=O)n(C2CCC(=O)NC2=O)c2ccc(N3CC(CO[C@@H]4CCN(CC5CCC(n6cc(NC(=O)c7cnn8ccc(N9C[C@H]%10C[C@@H]9CO%10)nc78)c(C(F)F)n6)CC5)C[C@@H]4F)C3)c(F)c21 (some centres unmarked) [I-725],> 0.2,> 0.2
CO[C@]1(CN2CCN(C[C@H]3CC[C@H](n4cc(NC(=O)c5cnn6ccc(N7C[C@H]8C[C@@H]7CO8)nc56)c(C(F)F)n4)CC3)CC2)C[C@@H](c2cccc3c2n(C)c(=O)n3C2CCC(=O)NC2=O)C1 (some centres unmarked) [I-729],> 0.2,< 0.01
Cn1c(=O)n(C2CCC(=O)NC2=O)c2cccc(N3CC(N4CCN([C@H]5CC[C@H](n6cc(NC(=O)c7cnn8ccc(N9C[C@H]%10C[C@@H]9CO%10)nc78)c(C(F)F)n6)CC5)CC4)C3)c21 (some centres unmarked) [I-730],> 0.2,< 0.01
Cn1c(=O)n(C2CCC(=O)NC2=O)c2cccc(C3CCN(C[C@H]4CC[C@H](n5cc6cc(NC(=O)c7cccc(C#N)n7)ncc6n5)CC4)CC3F)c21 (some centres unmarked) [I-731],> 0.2,< 0.01
Cn1c(=O)n(C2CCC(=O)NC2=O)c2cccc(N3CC(O[C@@H]4CCN(C[C@H]5CC[C@H](n6cc(NC(=O)c7cnn8ccc(N9C[C@H]%10C[C@@H]9CO%10)nc78)c(C(F)F)n6)CC5)C[C@H]4F)C3)c21 (some centres unmarked) [I-732],> 0.2,< 0.01
Cn1c(=O)n(C2CCC(=O)NC2=O)c2cccc(C3CCN(CC4CCC(n5cc6cc(NC(=O)c7cnn8ccc(N9CC%10CC9CO%10)cc78)ncc6n5)CC4)CC3(F)F)c21 (centres unmarked) [I-734],> 0.2,< 0.01
Cn1c(=O)n(C2CCC(=O)NC2=O)c2ccnc(N3CCN([C@H]4CCN(C[C@H]5CC[C@H](n6cc(NC(=O)c7cnn8ccc(N9C[C@H]%10C[C@@H]9CO%10)nc78)c(C(F)F)n6)CC5)CC4(F)F)CC3)c21 (some centres unmarked) [I-744],> 0.2,< 0.01
Cn1c(=O)n(C2CCC(=O)NC2=O)c2cccc(N3CCN([C@@H]4CCN(C[C@H]5CC[C@H](n6cc(NC(=O)c7cnn8ccc(N9CC%10(COC%10)C9)nc78)c(C(F)F)n6)CC5)CC4(F)F)CC3)c21 (some centres unmarked) [I-746],> 0.2,> 0.2
Cn1c(=O)n(C2CCC(=O)NC2=O)c2cccc(N3CCN([C@H]4CCN(C[C@H]5CC[C@H](n6cc(NC(=O)c7cnn8ccc(N9CC%10(COC%10)C9)nc78)c(C(F)F)n6)CC5)CC4(F)F)CC3)c21 (some centres unmarked) [I-747],> 0.2,> 0.2
Cn1c(=O)n(C2CCC(=O)NC2=O)c2cccc(C3CN([C@@H]4CCN([C@H]5CC[C@H](n6cc(NC(=O)c7cnn8ccc(N9C[C@H]%10C[C@@H]9CO%10)nc78)c(C(F)F)n6)CC5)CC4(F)F)C3)c21 (some centres unmarked) [I-749],> 0.2,> 0.2

# More lines, now with the values ahead:
DC50 [1] [µM],DC50 [2] [µM],Compound
> 0.2,< 0.01,Cn1c(=O)n(C2CCC(=O)NC2=O)c2cccc(N3CCN([C@H]4CCN(C[C@H]5CC[C@H](n6cc(NC(=O)c7cnn8ccc(N9C[C@H]%10C[C@@H]9CO%10)nc78)c(C(F)F)n6)CC5)CC4(F)F)CC3)c21 (some centres unmarked) [I-721]
> 0.2,< 0.01,Cn1c(=O)n(C2CCC(=O)NC2=O)c2ccc(N3CC(CN4CCN(C[C@H]5CC[C@H](n6cc(NC(=O)c7cnn8ccc(N9C[C@H]%10C[C@@H]9CO%10)nc78)c(C(F)F)n6)CC5)CC4)C3)c(F)c21 (some centres unmarked) [I-724]
> 0.2,< 0.01,Cn1c(=O)n(C2CCC(=O)NC2=O)c2cccc(C3=CCN(C[C@H]4CC[C@H](n5cc6cc(NC(=O)c7cccc(C(F)(F)F)n7)c(C(F)F)cc6n5)CC4)CC3F)c21 (some centres unmarked) [I-726]
> 0.2,< 0.01,Cc1cccc(C(=O)Nc2ccc3nn([C@H]4CC[C@H](CN5CC[C@@H](c6cccc7c6n(C)c(=O)n7C6CCC(=O)NC6=O)[C@H](F)C5)CC4)cc3c2)n1 (some centres unmarked) [I-727]
> 0.2,< 0.01,Cn1c(=O)n(C2CCC(=O)NC2=O)c2cccc(N3CC(O[C@H]4CCN(C[C@H]5CC[C@H](n6cc(NC(=O)c7cnn8ccc(N9C[C@H]%10C[C@@H]9CO%10)nc78)c(C(F)F)n6)CC5)C[C@H]4F)C3)c21 (some centres unmarked) [I-728]
> 0.2,< 0.01,Cn1c(=O)n(C2CCC(=O)NC2=O)c2cccc(N3CC(O[C@H]4CCN(C[C@H]5CC[C@H](n6cc(NC(=O)c7cnn8ccc(N9C[C@H]%10C[C@@H]9CO%10)nc78)c(C(F)F)n6)CC5)C[C@@H]4F)C3)c21 (some centres unmarked) [I-733]
> 0.2,< 0.01,Cn1c(=O)n(C2CCC(=O)NC2=O)c2cccc(N3CCN(C4CCN(C[C@H]5CC[C@H](n6cc(NC(=O)c7cnn8ccc(N9CC%10(COC%10)C9)nc78)c(C(F)F)n6)CC5)CC4(F)F)CC3)c21 (some centres unmarked) [I-735]
> 0.2,0.01 to 0.1,Cn1c(=O)n(C2CCC(=O)NC2=O)c2ccc(N3CC4(CCN(C[C@H]5CC[C@H](n6cc7cc(NC(=O)c8cccc(C(F)(F)F)n8)ncc7n6)CC5)CC4(F)F)C3)c(F)c21 (some centres unmarked) [I-737]
> 0.2,< 0.01,Cn1c(=O)n(C2CCC(=O)NC2=O)c2cccc(OC3CCN([C@H]4CC[C@H](n5cc(NC(=O)c6cnn7ccc(N8C[C@H]9C[C@@H]8CO9)nc67)c(C(F)F)n5)CC4)CC3)c21 (some centres unmarked) [I-739]
> 0.2,< 0.01,Cn1c(=O)n(C2CCC(=O)NC2=O)c2cccc(OC3CCN([C@H]4CC[C@H](n5cc6cc(NC(=O)c7cccc(C(F)(F)F)n7)ncc6n5)CC4)CC3)c21 (some centres unmarked) [I-740]
> 0.2,< 0.01,Cn1c(=O)n(C2CCC(=O)NC2=O)c2cccc(OC3CCN([C@H]4CC[C@H](n5cc6cc(NC(=O)c7cccc(C(F)(F)F)n7)ccc6n5)CC4)CC3)c21 (some centres unmarked) [I-741]
> 0.2,< 0.01,Cn1c(=O)n(C2CCC(=O)NC2=O)c2ccc(N3CC(CO[C@@H]4CCN(C[C@H]5CC[C@H](n6cc(NC(=O)c7cnn8ccc(N9C[C@H]%10C[C@@H]9CO%10)nc78)c(C(F)F)n6)CC5)C[C@H]4F)C3)c(F)c21 (some centres unmarked) [I-742]
> 0.2,< 0.01,Cn1c(=O)n(C2CCC(=O)NC2=O)c2ccnc(N3CCN([C@@H]4CCN(C[C@H]5CC[C@H](n6cc(NC(=O)c7cnn8ccc(N9C[C@H]%10C[C@@H]9CO%10)nc78)c(C(F)F)n6)CC5)CC4(F)F)CC3)c21 (some centres unmarked) [I-743]
> 0.2,< 0.01,Cn1c(=O)n(C2CCC(=O)NC2=O)c2ccc(F)c(N3CC(N4CCN([C@H]5CC[C@H](n6cc(NC(=O)c7cnn8ccc(N9C[C@H]%10C[C@@H]9CO%10)nc78)c(C(F)F)n6)CC5)CC4)C3)c21 (some centres unmarked) [I-745]
> 0.2,> 0.2,Cn1c(=O)n(C2CCC(=O)NC2=O)c2cccc(N3CC(CN4CCN(C[C@H]5CC[C@H](n6cc(NC(=O)c7cnn8ccc(N9C[C@H]%10C[C@@H]9CO%10)nc78)c(C(F)F)n6)CC5)CC4)C3)c21 (some centres unmarked) [I-748]
> 0.2,> 0.2,Cn1c(=O)n(C2CCC(=O)NC2=O)c2cccc(C3CN([C@H]4CCN([C@H]5CC[C@H](n6cc(NC(=O)c7cnn8ccc(N9C[C@H]%10C[C@@H]9CO%10)nc78)c(C(F)F)n6)CC5)CC4(F)F)C3)c21 (some centres unmarked) [I-750]
